From ChEMBL document CHEMBL1909046, “DrugMatrix in vitro pharmacology data”

Experiments:
[1] = target: T1, Neuropeptide Y receptor type 2 (Homo sapiens, UniProt P49146); format: cell membranes, Membrane; conditions: kan-ts; further: in other assays of this panel Not Active means under 50% inhibition at 10 µM
T1 sequence (P49146 whole entry): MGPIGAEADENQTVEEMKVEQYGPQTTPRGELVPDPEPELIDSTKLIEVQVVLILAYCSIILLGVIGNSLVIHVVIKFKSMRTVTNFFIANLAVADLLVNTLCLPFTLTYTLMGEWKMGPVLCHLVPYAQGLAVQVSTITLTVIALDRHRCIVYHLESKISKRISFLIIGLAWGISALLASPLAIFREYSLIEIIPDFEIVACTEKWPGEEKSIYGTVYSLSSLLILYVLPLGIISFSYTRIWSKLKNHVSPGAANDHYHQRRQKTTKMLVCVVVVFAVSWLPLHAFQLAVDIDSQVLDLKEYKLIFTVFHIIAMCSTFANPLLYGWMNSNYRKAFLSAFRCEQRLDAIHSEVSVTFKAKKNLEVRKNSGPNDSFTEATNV

Interstitial collagenase = target: T2, Interstitial collagenase (Homo sapiens, UniProt P03956); assay: biochemical; format: tissue-based, Rheumatoid synovial fibroblasts;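 further: MMP-1 enzyme inhibition assay using a peptide substrate; in other assays of this panel Not Active means under 50% inhibition at 10 µM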
T2 sequence (P03956 whole entry): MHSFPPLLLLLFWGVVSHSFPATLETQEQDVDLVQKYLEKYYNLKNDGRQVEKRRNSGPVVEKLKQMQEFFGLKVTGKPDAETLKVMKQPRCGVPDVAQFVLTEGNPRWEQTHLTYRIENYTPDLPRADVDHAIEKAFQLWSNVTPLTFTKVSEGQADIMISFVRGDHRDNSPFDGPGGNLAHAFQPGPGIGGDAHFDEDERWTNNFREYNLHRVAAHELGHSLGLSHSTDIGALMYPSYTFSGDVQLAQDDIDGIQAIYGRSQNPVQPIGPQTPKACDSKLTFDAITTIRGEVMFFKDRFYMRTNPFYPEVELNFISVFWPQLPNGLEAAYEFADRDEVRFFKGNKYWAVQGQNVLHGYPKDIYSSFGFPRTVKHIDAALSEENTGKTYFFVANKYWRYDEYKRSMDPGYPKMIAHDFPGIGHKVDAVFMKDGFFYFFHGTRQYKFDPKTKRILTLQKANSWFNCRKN

[2] = DRUGMATRIX: GABAA, Chloride Channel, TBOB radioligand binding (ligand: [3H] TBOB); format: cell membranes, Rattus norvegicus, Wistar, Cerebral cortex, Membrane; conditions: Not Active = under 50% inhibition at 10 µM
[3] = target: 5-hydroxytryptamine receptor 2B (Homo sapiens, UniProt P41595); format: cell membranes, CHO-K1, Membrane; conditions: cho-k1; further: in other assays of this panel Not Active means under 50% inhibition at 10 µM
Neutrophil elastase = target: T3, Neutrophil elastase (Homo sapiens, UniProt P08246); format: tissue-based;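 further: inhibition of neutrophil elastase enzyme activity, measured with a p-nitroanilide-linked peptide substrate; in other assays of this panel Not Active means under 50% inhibition at 10 µM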
T3 sequence (P08246 whole entry): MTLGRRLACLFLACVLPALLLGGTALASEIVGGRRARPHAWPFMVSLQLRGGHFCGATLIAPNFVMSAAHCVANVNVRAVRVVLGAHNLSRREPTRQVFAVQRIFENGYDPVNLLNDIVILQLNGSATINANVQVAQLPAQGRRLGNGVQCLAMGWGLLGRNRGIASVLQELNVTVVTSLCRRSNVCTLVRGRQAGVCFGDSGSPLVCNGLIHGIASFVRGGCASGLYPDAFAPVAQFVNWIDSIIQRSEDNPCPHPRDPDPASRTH

[4] = DRUGMATRIX: Phosphodiesterase PDE4 enzyme inhibition (substrate: [3H]cAMP + cAMP); conditions: u-937, Not Active = under 50% inhibition at 10 µM
[5] = DRUGMATRIX: GABAA, Flunitrazepam, Central radioligand binding (ligand: [3H] Flunitrazepam); format: cell membranes, Rattus norvegicus, Wistar, Brain, Membrane; conditions: Not Active = under 50% inhibition at 10 µM

Sequence of 5-hydroxytryptamine receptor 2B (P41595 whole entry): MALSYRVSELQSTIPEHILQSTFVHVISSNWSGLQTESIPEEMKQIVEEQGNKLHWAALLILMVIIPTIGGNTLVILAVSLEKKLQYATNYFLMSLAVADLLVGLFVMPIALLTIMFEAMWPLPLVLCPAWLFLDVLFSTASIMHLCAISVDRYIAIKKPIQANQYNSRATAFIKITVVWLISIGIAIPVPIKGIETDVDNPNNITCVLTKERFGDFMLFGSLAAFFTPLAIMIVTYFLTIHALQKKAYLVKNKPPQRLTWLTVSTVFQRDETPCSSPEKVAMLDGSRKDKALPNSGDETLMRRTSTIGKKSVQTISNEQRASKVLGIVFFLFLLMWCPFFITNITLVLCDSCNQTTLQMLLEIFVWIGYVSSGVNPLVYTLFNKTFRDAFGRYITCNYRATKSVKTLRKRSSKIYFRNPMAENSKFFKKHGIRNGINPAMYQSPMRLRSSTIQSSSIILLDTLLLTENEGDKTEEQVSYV

Compound	IC50 [1]	IC50 (Interstitial collagenase)	IC50 [2]	Ki [2]	IC50 [3]	IC50 (Neutrophil elastase)	IC50 [4]	Ki [4]	IC50 [5]	Ki [5]	IC50 ([4]; read-out: IC50) [nM]	IC50 ([5]; read-out: IC50) [nM]	Ki ([5]; read-out: Ki) [nM]	Ki [1]	Ki (Interstitial collagenase)	Ki [3]	Ki (Neutrophil elastase)
CC[C@]1(O)C[C@@H]2CN(CCc3c([nH]c4ccccc34)[C@@](C(=O)OC)(c3cc4c(cc3OC)N(C)[C@H]3[C@@](O)(C(N)=O)[C@H](O)[C@]5(CC)C=CCN6CC[C@]43[C@@H]65)C2)C1 [VINDESINE]	Not Active	Not Active	Not Active	Not Active	Not Active	Not Active	Not Active	Not Active	Not Active	Not Active	–	–	–	–	–	–	–
CCOc1nc2cccc(C(=O)O)c2n1Cc1ccc(-c2ccccc2-c2nnn[nH]2)cc1	Not Active	Not Active	Not Active	Not Active	Not Active	Not Active	–	–	Not Active	Not Active	276	–	–	–	–	–	–
C[S+](C)[O-] [DIMETHYL SULFOXIDE]	Not Active	Not Active	Not Active	Not Active	Not Active	Not Active	Not Active	Not Active	Not Active	Not Active	–	–	–	–	–	–	–
C[C@@H]1O[C@@H](O[C@H]2C[C@@H](O)[C@]3(CO)[C@H]4[C@H](O)C[C@]5(C)[C@@H](C6=CC(=O)OC6)CC[C@]5(O)[C@@H]4CC[C@]3(O)C2)[C@H](O)[C@H](O)[C@H]1O [OUABAIN]	Not Active	Not Active	Not Active	Not Active	Not Active	Not Active	Not Active	Not Active	Not Active	Not Active	–	–	–	–	–	–	–
C#C[C@]1(O)CC[C@H]2[C@@H]3CCC4=CC(=O)CC[C@]4(C)[C@H]3CC[C@@]21C [ETHISTERONE]	Not Active	Not Active	Not Active	Not Active	Not Active	Not Active	Not Active	Not Active	Not Active	Not Active	–	–	–	–	–	–	–
O=C(c1ccccc1F)N1CCC(Cc2ccccc2)CC1	Not Active	Not Active	Not Active	Not Active	Not Active	Not Active	Not Active	Not Active	Not Active	Not Active	–	–	–	–	–	–	–
O=C(O)CCNC(=O)c1ccc(/N=N/c2ccc(O)c(C(=O)O)c2)cc1 [BALSALAZIDE]	Not Active	Not Active	Not Active	Not Active	Not Active	Not Active	Not Active	Not Active	Not Active	Not Active	–	–	–	–	–	–	–
N=C(N)c1ccc(OCCCCCOc2ccc(C(=N)N)cc2)cc1 [PENTAMIDINE]	Not Active	Not Active	Not Active	Not Active	Not Active	Not Active	Not Active	Not Active	Not Active	Not Active	–	–	–	–	–	–	–
CN1C(=O)CN=C(c2ccccc2)c2cc([N+](=O)[O-])ccc21 [NIMETAZEPAM]	Not Active	Not Active	Not Active	Not Active	Not Active	Not Active	Not Active	Not Active	–	–	–	104	85	–	–	–	–
NS(=O)(=O)c1cc(C2(O)NC(=O)c3ccccc32)ccc1Cl (stereo unspecified) [CHLORTHALIDONE]	Not Active	Not Active	Not Active	Not Active	Not Active	Not Active	Not Active	Not Active	Not Active	Not Active	–	–	–	–	–	–	–
CC(=O)OCC(=O)[C@@]1(O)CC[C@H]2[C@@H]3CCC4=CC(=O)CC[C@]4(C)[C@@]3(F)[C@@H](O)C[C@@]21C [FLUDROCORTISONE ACETATE]	Not Active	Not Active	Not Active	Not Active	Not Active	Not Active	Not Active	Not Active	Not Active	Not Active	–	–	–	–	–	–	–
COLISTIN	Not Active	Not Active	Not Active	Not Active	Not Active	Not Active	Not Active	Not Active	Not Active	Not Active	–	–	–	Not Active	Not Active	Not Active	Not Active
O=c1c(-c2ccc(O)cc2)coc2cc(O)cc(O)c12 [GENISTEIN]	Not Active	Not Active	Not Active	Not Active	Not Active	Not Active	–	–	Not Active	Not Active	10900	–	–	–	–	–	–
CN1C[C@@H]2C[C@H]1CN2c1cc2c(cc1F)c(=O)c(C(=O)O)cn2C1CC1 [DANOFLOXACIN]	Not Active	Not Active	Not Active	Not Active	Not Active	Not Active	Not Active	Not Active	Not Active	Not Active	–	–	–	–	–	–	–
C[C@]12C=CC(=O)C=C1CC[C@H]1[C@@H]3C[C@@H](O)[C@](O)(C(=O)CO)[C@@]3(C)C[C@H](O)[C@@]12F [TRIAMCINOLONE]	Not Active	Not Active	Not Active	Not Active	Not Active	Not Active	Not Active	Not Active	Not Active	Not Active	–	–	–	–	–	–	–
CN1CCN(c2c(F)cc3c(=O)c(C(=O)O)cn(CCF)c3c2F)CC1 [FLEROXACIN]	Not Active	Not Active	Not Active	Not Active	Not Active	Not Active	Not Active	Not Active	Not Active	Not Active	–	–	–	–	–	–	–
CC(C)(C(=O)O)c1ccc(C(O)CCCN2CCC(C(O)(c3ccccc3)c3ccccc3)CC2)cc1 (stereo unspecified) [FEXOFENADINE]	Not Active	Not Active	Not Active	Not Active	Not Active	Not Active	Not Active	Not Active	Not Active	Not Active	–	–	–	–	–	–	–
CC(O)(P(=O)(O)O)P(=O)(O)O [ETIDRONIC ACID]	Not Active	Not Active	Not Active	Not Active	Not Active	Not Active	Not Active	Not Active	Not Active	Not Active	–	–	–	–	–	–	–
CCOC(=O)c1ncn2c1CN(C)C(=O)c1cc(F)ccc1-2 [FLUMAZENIL]	Not Active	Not Active	Not Active	Not Active	Not Active	Not Active	Not Active	Not Active	–	–	–	3.87	3.15	–	–	–	–
NNCCc1ccccc1 [PHENELZINE]	Not Active	Not Active	Not Active	Not Active	Not Active	Not Active	Not Active	Not Active	Not Active	Not Active	–	–	–	–	–	–	–
COc1ccc2c(c1OC)C(=O)O[C@@H]2[C@H]1c2c(cc3c(c2OC)OCO3)CCN1C [NOSCAPINE]	Not Active	Not Active	Not Active	Not Active	Not Active	Not Active	Not Active	Not Active	Not Active	Not Active	–	–	–	–	–	–	–
COBALTOUS CHLORIDE	Not Active	Not Active	Not Active	Not Active	Not Active	Not Active	Not Active	Not Active	Not Active	Not Active	–	–	–	Not Active	Not Active	Not Active	Not Active
